Results: patent publication US20080153917A1, “Sigma Receptor Ligands” (UCB PHARMA, S.A., priority 2004, published 2008)
Structures can show the parent of a compound that is named as a salt.

Experiments:
[1] = tested on: MK801-induced short term/working memory deficits; experiment: spontaneous alternation task (Y-shaped maze), short term/working memory; format: in vivo; details: male mice, 8 minutes in maze; normal mice 65-70 %
Text: The effect of claimed compounds has been evaluated in an animal model of short term/working memory, namely the spontaneous alternation task. The test system consisted of a symmetrical Y-shaped maze. […] Claimed compounds were able to prevent this deficit after systemic administration.

Row | SMILES | melting point | % spontaneous alternation [1]
1 | CC1CCCCN1CCCNC(=O)C(c1ccccc1)C1CCCC1 (centres unmarked) (as salt: HCl) [Compound 14, 2-cyclopentyl-N-[3-(2-methyl-1-piperidinyl)propyl]-2-phenylacetamide] | 69 °C | –
2 | CCN(CC)CCNC(=O)C(c1ccccc1)C1CCCC1 (centres unmarked) (as salt: HCl) [Compound 15, 2-cyclopentyl-N-[2-(diethylamino)ethyl]-2-phenylacetamide] | 129 °C | –
3 | CCNCCNC(=O)C(c1ccccc1)C1CCCC1 (centres unmarked) (as salt: HCl) [Compound 18, 2-cyclopentyl-N-[2-(ethylamino)ethyl]-2-phenylacetamide] | 131 °C | –
4 | CCN(CC)CCNC(=O)C(c1ccc(F)cc1)C1CCCC1 (centres unmarked) (as salt: HCl) [Compound 21, 2-cyclopentyl-N-[2-(diethylamino)ethyl]-2-(4-fluorophenyl)acetamide] | 45 °C | –
5 | NCCNC(=O)C(c1ccccc1)C1CCCC1 (centres unmarked) (as salt: HCl) [Compound 22, N-(2-aminoethyl)-2-cyclopentyl-2-phenylacetamide] | 290 °C | –
6 | O=C(C(c1ccccc1)C1CCCC1)N1CCC(N2CCCCC2)CC1 (centres unmarked) (as salt: HCl) [Compound 24, 1′-[cyclopentyl(phenyl)acetyl]-1,4′-bipiperidine] | 112 °C | –
7 | O=C(C(c1ccc(Cl)c(Cl)c1)C1CCCC1)N1CCC(N2CCCCC2)CC1 (centres unmarked) (as salt: HCl) [Compound 25, 1′-[cyclopentyl(3,4-dichlorophenyl)acetyl]-1,4′-bipiperidine] | 230 °C | –
8 | O=C(C(c1ccc(Cl)cc1)C1CCCC1)N1CCC(N2CCCCC2)CC1 (centres unmarked) (as salt: HCl) [Compound 27, 1′-[(4-chlorophenyl)(cyclopentyl)acetyl]-1,4′-bipiperidine] | 105 °C | –
9 | O=C(NCCCN1CCOCC1)C(c1ccccc1)C1CCCC1 (centres unmarked) (as salt: HCl) [Compound 32, 2-cyclopentyl-N-[3-(4-morpholinyl)propyl]-2-phenylacetamide] | 145 °C | –
10 | O=C(NCCCN1CCN(Cc2c(F)cccc2Cl)CC1)C(c1ccccc1)C1CCCC1 (centres unmarked) (as salt: HCl) [Compound 34, N-{3-[4-(2-chloro-6-fluorobenzyl)-1-piperazinyl]propyl}-2-cyclopentyl-2-phenylacetamide] | 148 °C | –
11 | CCN(CC)C1CCN(C(=O)C(c2ccccc2)C2CCCC2)CC1 (centres unmarked) (as salt: HCl) [Compound 37, N-{1-[cyclopentyl(phenyl)acetyl]-4-piperidinyl}-N,N-diethylamine] | 79 °C | –
12 | CCOC(=O)C1CCN(C2CCN(C(=O)C(c3ccccc3)C3CCCC3)CC2)CC1 (centres unmarked) (as salt: HCl) [Compound 40, ethyl 1′-[cyclopentyl(phenyl)acetyl]-1,4′-bipiperidine-4-carboxylate] | 88 °C | –
13 | O=C(C(c1ccccc1)C1CCCC1)N1CCC(N2CCC(O)CC2)CC1 (centres unmarked) (as salt: HCl) [Compound 41, 1′-[cyclopentyl(phenyl)acetyl]-1,4′-bipiperidin-4-ol] | 90 °C | –
14 | O=C(C(c1ccccc1)C1CCCC1)N1CCC(N2CCOCC2)CC1 (centres unmarked) (as salt: Na) [Compound 36, 4-{1-[cyclopentyl(phenyl)acetyl]-4-piperidinyl}morpholine] | 111.8 °C | –
15 | CC(C)N1CCN(C2CCN(C(=O)C(c3ccccc3)C3CCCC3)CC2)CC1 (centres unmarked) (as salt: Na) [Compound 38, 1-{1-[cyclopentyl(phenyl)acetyl]-4-piperidinyl}-4-isopropylpiperazine] | 109.6 °C | –
16 | CN(C)[C@H]1CCN(C(=O)C(c2ccccc2)C2CCCC2)C1 (stereo partly drawn) (as salt: Na) [Compound 42, (3S)-1-[cyclopentyl(phenyl)acetyl]-N,N-dimethyl-3-pyrrolidinamine] | 68 °C | –
17 | O=C(NCCCN1CCN(Cc2c(F)cccc2Cl)CC1)[C@@H]1C[C@H]1c1ccccc1 (relative stereo) (as salt: HCl) [Compound 5, Trans-N-{3-[4-(2-chloro-6-fluorobenzyl)-1-piperazinyl]propyl}-2-phenylcyclopropanecarboxamide] | 145 °C | –
18 | O=C(NCCN1CCN(Cc2ccccc2)CC1)[C@@H]1C[C@H]1c1ccccc1 (relative stereo) (as salt: HCl) [Compound 7, Trans-N-[2-(4-benzyl-1-piperazinyl)ethyl]-2-phenylcyclopropanecarboxamide] | 195 °C | –
19 | O=C(NCCN1CCN(C(=O)c2c(F)cccc2Cl)CC1)[C@@H]1C[C@H]1c1ccccc1 (relative stereo) (as salt: HCl) [Compound 9, Trans-N-{2-[4-(2-chloro-6-fluorobenzoyl)-1-piperazinyl]ethyl}-2-phenylcyclopropanecarboxamide] | 122 °C | –
20 | O=C(NCCN1CCN(Cc2ccc(Cl)c(Cl)c2)CC1)[C@@H]1C[C@H]1c1ccccc1 (relative stereo) (as salt: HCl) [Compound 10, Trans-N-{2-[4-(3,4-dichlorobenzyl)-1-piperazinyl]ethyl}-2-phenylcyclopropanecarboxamide] | 145 °C | –
21 | CCN(CC)CCNC(=O)C(c1ccccc1)C1CCCC1 (single isomer, unassigned; (+)) (as salt: HCl) [Compound 50, (+)2-cyclopentyl-N-[2-(diethylamino)ethyl]-2-phenylacetamide] | 144 °C | –
22 | CCN(CC)CCNC(=O)C(c1ccccc1)C1CCCC1 (single isomer, unassigned; (-)) (as salt: HCl) [Compound 51, (−)2-cyclopentyl-N-[2-(diethylamino)ethyl]-2-phenylacetamide] | 146 °C | –
23 | C[C@]12N[C@H](Cc3ccccc31)c1ccccc12 [MK801] | – | decreased percentage of spontaneous alternation
